SMILES | melting point [°C]
CN1CCN(c2cccc3c2C[C@H](NC(=O)c2ccccc2OS(C)(=O)=O)CC3)CC1 [Example 93, (R)-N-[8-(4-Methylpiperazin-1-yl)-1,2,3,4-tetrahydro-2-naphthyl]-2-methylsulfonyloxybenzamide] | 144 to 145
CN1CCC(c2cccc3c2C[C@H](NC(=O)c2ccc(C(F)(F)F)cc2)CC3)CC1 [Example 99, (R)-N-[8-(1-Methylpiperidine-4yl)-1,2,3,4-tetrahydro-2-naphthyl]-4-trifluoromethylbenzamide] | 163 to 166
CCCCOc1ccc(C(=O)N[C@@H]2CCc3cccc(C4CCN(C)CC4)c3C2)cc1 [Example 100, (R)-N-[8-(1-Methylpiperidin-4-yl)-1,2,3,4-tetrahydro-2-naphthyl]-4-butoxybenzamide] | 162 to 164
CN1CCC(c2cccc3c2C[C@H](NC(=O)c2ccc(N4CCOCC4)cc2)CC3)CC1 [Example 101, (R)-N-[8-(1-Methylpiperidin-4-yl)-1,2,3,4-tetrahydro-2-naphthyl]-4-morpholinobenzamide] | 196 to 198
CN1CCN(c2cccc3c2CC[C@@H](NC(=O)c2ccc(N4CCOCC4)cc2)C3)CC1 [Example 118, (R)-N-[5-(4-Methylpiperazin-1-yl)-1,2,3,4-tetrahydro-2-naphthyl]-4-morpholinobenzamide] | 127 to 128
CN1CCN(c2cccc3c2CC[C@H](NC(=O)c2ccc(N4CCOCC4)cc2)C3)CC1 [Example 119, (S)-N-[5-(4-Methylpiperazin-1-yl)-1,2,3,4-tetrahydro-2-naphthyl]-4-morpholinobenzamide] | 129 to 131
CN1CCN(c2cccc3c2C[C@H](N(C)C(=O)c2ccc(C(F)(F)F)cc2)CC3)CC1 [Example 122, (R)-N-Methyl-N-[8-(4-methylpiperazin-1-yl)-1,2,3,4-tetrahydro-2-naphthyl]-4-trifluoromethylbenzamide] | 123 to 125
CN1CCN(c2cccc3c2C[C@H](NC(=O)c2ccc(N4CCSCC4)cc2)CC3)CC1 [Example 125, (R)-N-[8-(4-Methylpiperazin-1-yl)-1,2,3,4-tetrahydro-2-naphthyl]-4-thiomorpholinobenzamide] | 190 to 191
CN1CCN(c2cccc3c2C[C@H](NC(=O)c2ccc(C(=O)N4CCOCC4)cc2)CC3)CC1 [Example 129, (R)-N-[8-(4-Methylpiperazin-1-yl)-1,2,3,4-tetrahydro-2-naphthyl]-4-morpholinocarbonylbenzamide] | 124 to 127

Source: patent US6410530B1, “Substituted 1,2,3,4-tetrahydronaphthalene derivatives” (AstraZeneca AB, priority 1996, dated 2002)
